Test results from ChEMBL document CHEMBL1201862, “PubChem BioAssay data set” (2004).
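In this assay, cells in 96-well plates receive the compound at five concentrations for 48 hours. Endpoints are linearly interpolated between the surrounding concentrations. GI50: concentration for 50% inhibition of growth.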 Activity calls are given as the source filed them. No stated cut-off is given here; in the data, active = GI50 up to about 1.1 µM and inactive = higher.

Columns and labels:
Assay in all cases: DTP human tumour cell line panel, 48 h
HOP-18 = test system: HOP-18
KM-20L2 = test system: KM-20L2
LXFL 529 = test system: LXFL 529
DMS-273 = test system: DMS-273
M19-MEL = test system: M19-MEL
DMS-114 = test system: DMS-114
RXF 631 = test system: RXF 631
XF498 = test system: XF498
SNB-78 = test system: SNB-78

SMILES | GI50 (HOP-18) | GI50 (KM-20L2) | GI50 (LXFL 529) | GI50 (DMS-273) | GI50 (M19-MEL) | GI50 (DMS-114) | GI50 (RXF 631) | GI50 (XF498) | GI50 (SNB-78)
CCN(CC)CCCCC1CCN(CC(=O)N2CC(C)C(=O)Nc3ccccc32)CC1 (stereo not drawn) | > 100 µM (inactive) | > 100 µM (inactive) | > 100 µM (inactive) | > 100 µM (inactive) | > 100 µM (inactive) | > 100 µM (inactive) | – | – | –
CCN(CC)CCOc1ccc(C(=C2CCCCC2)c2ccc(OCCN(CC)CC)cc2)cc1 | 2.89 µM (inactive) | 1.27 µM (inactive) | 1.69 µM (inactive) | 1.52 µM (inactive) | 1.71 µM (inactive) | – | 1.46 µM (inactive) | 1.07 µM (active) | –
O=C1c2cccc3cc([N+](=O)[O-])cc(c23)C(=O)N1NC1=NCCN1 | > 100 µM (inactive) | > 100 µM (inactive) | > 100 µM (inactive) | > 100 µM (inactive) | > 100 µM (inactive) | > 100 µM (inactive) | > 100 µM (inactive) | > 100 µM (inactive) | > 100 µM (inactive)
c1ccc([B-]23Oc4ccccc4[NH+]2c2ccccc2O3)cc1 (stereo not drawn) | > 100 µM (inactive) | – | 63.8 µM (inactive) | 54.6 µM (inactive) | – | 24.9 µM (inactive) | – | – | 77.4 µM (inactive)
CC1(C)C(c2ccccc2)C12CCC1(C2=O)C(c2ccccc2)C1(C)C (stereo not drawn) | – | 20.3 µM (inactive) | 31.5 µM (inactive) | 22.1 µM (inactive) | 24.6 µM (inactive) | 17.9 µM (inactive) | – | 18.7 µM (inactive) | 24.6 µM (inactive)
Nc1nc2ncn(CCO)c2c(=S)[nH]1 | > 100 µM (inactive) | > 100 µM (inactive) | > 100 µM (inactive) | > 100 µM (inactive) | > 100 µM (inactive) | > 100 µM (inactive) | – | – | > 100 µM (inactive)
O=[N+]([O-])c1ccccc1[S+]([O-])c1ccccc1 (stereo not drawn) | – | – | > 100 µM (inactive) | 47.2 µM (inactive) | 21.3 µM (inactive) | 22.1 µM (inactive) | – | > 100 µM (inactive) | 56.9 µM (inactive)
CN(C)c1ccc(Cc2cc(C(C)(C)C)cc(C(C)(C)C)c2O)cc1 | 26 µM (inactive) | 18.5 µM (inactive) | 15.2 µM (inactive) | 17.4 µM (inactive) | 21.3 µM (inactive) | 14.6 µM (inactive) | 17.3 µM (inactive) | 19.9 µM (inactive) | 18.5 µM (inactive)
Cc1ccc(C2=C(c3ccccc3)C(O)(c3ccccc3)C(c3ccccc3)=C2c2ccc(C)cc2)cc1 | > 100 µM (inactive) | > 100 µM (inactive) | > 100 µM (inactive) | – | > 100 µM (inactive) | – | > 100 µM (inactive) | 44.5 µM (inactive) | > 100 µM (inactive)
CC1(C)CC(N(C(=O)/C=C/c2ccc([N+](=O)[O-])o2)C2CCCCC2)CC(C)(C)N1 | 22.8 µM (inactive) | 5.38 µM (inactive) | 5.36 µM (inactive) | 5.52 µM (inactive) | 5.11 µM (inactive) | 2.55 µM (inactive) | 10.6 µM (inactive) | 11.4 µM (inactive) | 10.5 µM (inactive)
O=C1c2ccccc2C(=O)c2sc(Nc3ccc(Cl)c(Cl)c3)nc21 | 5.06 µM (inactive) | 19.5 µM (inactive) | 1.82 µM (inactive) | 5.3 µM (inactive) | 1.12 µM (inactive) | 1.67 µM (inactive) | 7.98 µM (inactive) | 2.54 µM (inactive) | 2.52 µM (inactive)
O=C1c2ccc3c4ccccc4n(-c4ccccc4)c3c2C(=O)N1c1ccc(Cl)cc1 | – | > 100 µM (inactive) | > 100 µM (inactive) | > 100 µM (inactive) | > 100 µM (inactive) | > 100 µM (inactive) | > 100 µM (inactive) | – | > 100 µM (inactive)
COc1cc(C2c3cc4c(cc3[C@@H](Nc3ccc(N)cc3)C3COC(=O)[C@H]23)OCO4)cc(OC)c1O (stereo partly drawn) | 9.89 µM (inactive) | 1.94 µM (inactive) | 8.59 µM (inactive) | 0.361 µM (active) | 2.91 µM (inactive) | 1.59 µM (inactive) | – | 1.45 µM (inactive) | 9.16 µM (inactive)
O=[N+]([O-])c1c(/C=N/c2ccccc2)oc(-c2ccc3c(c2)OCO3)c1-c1ccc2c(c1)OCO2 | – | > 100 µM (inactive) | > 100 µM (inactive) | > 100 µM (inactive) | > 100 µM (inactive) | 60.7 µM (inactive) | > 100 µM (inactive) | > 100 µM (inactive) | > 100 µM (inactive)
CC(C)CC(=O)N1CCN(C(=O)CC(C)C)c2ccccc21 | 10.1 µM (inactive) | > 100 µM (inactive) | > 100 µM (inactive) | > 100 µM (inactive) | > 100 µM (inactive) | > 100 µM (inactive) | > 100 µM (inactive) | > 100 µM (inactive) | 91.6 µM (inactive)
O=C(O)COc1ccc(C(=O)/C(SS/C(C(=O)c2ccc(OCC(=O)O)c(Cl)c2Cl)=C2\C=C(c3ccc(Cl)cc3)SS2)=C2/C=C(c3ccc(Cl)cc3)SS2)c(Cl)c1Cl | 7.73 µM (inactive) | 25.1 µM (inactive) | 4.61 µM (inactive) | 18.1 µM (inactive) | 7.74 µM (inactive) | – | 12.1 µM (inactive) | – | 6.7 µM (inactive)
CN1CC(=O)N(C)c2[nH]cnc2C1=O | > 100 µM (inactive) | – | > 100 µM (inactive) | > 100 µM (inactive) | > 100 µM (inactive) | > 100 µM (inactive) | > 100 µM (inactive) | 80.9 µM (inactive) | > 100 µM (inactive)
CCc1cccc(C)c1NC(=O)NS(=O)(=O)c1ccc(C)cc1 | > 100 µM (inactive) | > 100 µM (inactive) | > 100 µM (inactive) | > 100 µM (inactive) | > 100 µM (inactive) | > 100 µM (inactive) | > 100 µM (inactive) | > 100 µM (inactive) | > 100 µM (inactive)
C=C(C)[C@H](O)C(O)CC(C)[C@@H]1CCC23CC12CCC1[C@@]2(C)CCC(OC(C)=O)C(C)(C)C2CC(OC2OC(COC(C)=O)C(O)C(O)C2O)[C@]13C (stereo partly drawn) | 8.85 µM (inactive) | 4.53 µM (inactive) | 5.32 µM (inactive) | 5.66 µM (inactive) | 5.24 µM (inactive) | 4.91 µM (inactive) | 6.12 µM (inactive) | – | 7.16 µM (inactive)
CC(C)C(=O)Nc1nc2[nH]cnc2c(=O)[nH]1 | > 100 µM (inactive) | > 100 µM (inactive) | > 100 µM (inactive) | > 100 µM (inactive) | > 100 µM (inactive) | > 100 µM (inactive) | > 100 µM (inactive) | > 100 µM (inactive) | > 100 µM (inactive)
CCCCSN1C(=O)c2ccccc2C1=S | – | – | – | 45.3 µM (inactive) | 56.2 µM (inactive) | 45.5 µM (inactive) | > 100 µM (inactive) | > 100 µM (inactive) | 49.3 µM (inactive)
Cc1cc(Cl)ccc1NC(=O)CC1SC(N)=NC1=O (stereo not drawn) | > 100 µM (inactive) | > 100 µM (inactive) | > 100 µM (inactive) | > 100 µM (inactive) | > 100 µM (inactive) | > 100 µM (inactive) | > 100 µM (inactive) | – | –
ON=C1CCC(c2ccccc2)CC1 (stereo not drawn) | > 100 µM (inactive) | > 100 µM (inactive) | > 100 µM (inactive) | > 100 µM (inactive) | > 100 µM (inactive) | > 100 µM (inactive) | – | > 100 µM (inactive) | > 100 µM (inactive)
N=C(NC(=S)N1CCCCC1)N1CCCCC1 | > 100 µM (inactive) | > 100 µM (inactive) | > 100 µM (inactive) | > 100 µM (inactive) | > 100 µM (inactive) | > 100 µM (inactive) | – | > 100 µM (inactive) | > 100 µM (inactive)
C(=C\c1ccc2ccccc2c1Nc1ccccc1)/c1ccccc1 | 26.4 µM (inactive) | 45.1 µM (inactive) | > 73.1 µM (inactive) | 32.7 µM (inactive) | > 92.7 µM (inactive) | 38.8 µM (inactive) | – | 18.4 µM (inactive) | 38.6 µM (inactive)
CCNC1=Nc2ccc(Cl)cc2C(c2ccccc2)=NN1 | 62.2 µM (inactive) | – | – | 10.9 µM (inactive) | 18.1 µM (inactive) | 15.4 µM (inactive) | 19.9 µM (inactive) | 25.8 µM (inactive) | 25.5 µM (inactive)
